Measurements from PubChem BioAssay AID1963959 (Molecular Pharmacology Branch, DTP, NCI, 2024).

Tested on: T-47D spheroids with HUVEC/MSC, viability
Test: Anticancer human tumor T-47D cell line growth inhibition [PI3K];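 further: spheroids exposed to agents for seven days before reading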;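 on viability, T/C: percent of DMSO vehicle control luminescence so 100% = untreated growth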
Settings: for viability, T/C: stronger effect = lower value
How it was run: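 Tumor cells grown as multi-cell spheroids with HUVEC endothelial cells and MSC fibroblast-like stroma were treated with targeted agents combined with inavolisib, alpelisib, duvelisib or copanlisib. Doses fell in half-log steps from near clinical Cmax, else from 10 microM. Viability was measured.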

[1] = curve of first compound, second compound 0.0316 µM
[2] = curve of first compound, second compound 0.1 µM
[3] = curve of first compound, second compound 0.316 µM
[4] = curve of first compound, second compound 1 µM
[5] = curve of first compound, second compound 0.00316 µM
[6] = curve of first compound, second compound 0.01 µM
[7] = second compound 0.00316 µM, first compound 0.0316 µM
[8] = second compound 0.00316 µM, first compound 0.1 µM
[9] = second compound 0.01 µM, first compound 0.0316 µM
[10] = second compound 0.01 µM, first compound 0.1 µM
[11] = second compound 0.0316 µM, first compound 0.0316 µM
[12] = second compound 0.0316 µM, first compound 0.1 µM
[13] = second compound 0.1 µM, first compound 0.0316 µM
[14] = second compound 0.1 µM, first compound 0.1 µM
[15] = second compound 0.316 µM, first compound 0.0316 µM
[16] = second compound 0.316 µM, first compound 0.1 µM
[17] = second compound 1 µM, first compound 0.0316 µM
[18] = second compound 1 µM, first compound 0.1 µM

In the case of Cn1cnc2c(F)c(Nc3ccc(Br)cc3Cl)c(C(=O)NOCCO)cc21 + Cc1nc(NC(=O)N2CCCC2C(N)=O)sc1-c1ccnc(C(C)(C)C(F)(F)F)c1, the IC50 [1] is reported as greater than 3 µM, the IC50 [2] is reported as greater than 3 µM and the IC50 [3] is reported as greater than 3 µM. For the same compound, the IC50 [4] was greater than 3 µM, the IC50 (curve of first compound, second compound 3.16 µM) was greater than 3 µM and the IC50 (curve of first compound, second compound 10 µM) was less than 0.00949 µM. It also gave a viability, T/C (second compound 0.0316 µM, first compound 0.00949 µM) of 118%, a viability, T/C (second compound 0.0316 µM, first compound 0.03 µM) of 93.1% and a viability, T/C (second compound 0.0316 µM, first compound 0.0949 µM) of 92.6%. For the same compound, the viability, T/C (second compound 0.0316 µM, first compound 0.3 µM) was 85.5%, the viability, T/C (second compound 0.0316 µM, first compound 0.949 µM) was 93.1% and the viability, T/C (second compound 0.0316 µM, first compound 3 µM) was 105%. It also gave a viability, T/C (second compound 0.1 µM, first compound 0.00949 µM) of 94.9%, a viability, T/C (second compound 0.1 µM, first compound 0.03 µM) of 96.7% and a viability, T/C (second compound 0.1 µM, first compound 0.0949 µM) of 85.7%. For the same compound, the viability, T/C (second compound 0.1 µM, first compound 0.3 µM) was 96.1%, the viability, T/C (second compound 0.1 µM, first compound 0.949 µM) was 84.9% and the viability, T/C (second compound 0.1 µM, first compound 3 µM) was 92.3%. It also gave a viability, T/C (second compound 0.316 µM, first compound 0.00949 µM) of 97.4%, a viability, T/C (second compound 0.316 µM, first compound 0.03 µM) of 102% and a viability, T/C (second compound 0.316 µM, first compound 0.0949 µM) of 92.6%. The viability, T/C (second compound 0.316 µM, first compound 0.3 µM) was 91.2%, the viability, T/C (second compound 0.316 µM, first compound 0.949 µM) was 95.5% and the viability, T/C (second compound 0.316 µM, first compound 3 µM) was 92.3%. For the same compound, the viability, T/C (second compound 1 µM, first compound 0.00949 µM) was 88.2%, the viability, T/C (second compound 1 µM, first compound 0.03 µM) was 81.3% and the viability, T/C (second compound 1 µM, first compound 0.0949 µM) was 96.2%. The viability, T/C (second compound 1 µM, first compound 0.3 µM) was 93.4%, the viability, T/C (second compound 1 µM, first compound 0.949 µM) was 85.8% and the viability, T/C (second compound 1 µM, first compound 3 µM) was 96%. It also gave a viability, T/C (second compound 3.16 µM, first compound 0.00949 µM) of 77%, a viability, T/C (second compound 3.16 µM, first compound 0.03 µM) of 67.8% and a viability, T/C (second compound 3.16 µM, first compound 0.0949 µM) of 65.4%. The viability, T/C (second compound 3.16 µM, first compound 0.3 µM) was 65.5%, the viability, T/C (second compound 3.16 µM, first compound 0.949 µM) was 66.8% and the viability, T/C (second compound 3.16 µM, first compound 3 µM) was 72.2%. The viability, T/C (second compound 10 µM, first compound 0.00949 µM) was 36.7%, the viability, T/C (second compound 10 µM, first compound 0.03 µM) was 38.9% and the viability, T/C (second compound 10 µM, first compound 0.0949 µM) was 41.8%. For the same compound, the viability, T/C (second compound 10 µM, first compound 0.3 µM) was 37.7%, the viability, T/C (second compound 10 µM, first compound 0.949 µM) was 39.6% and the viability, T/C (second compound 10 µM, first compound 3 µM) was 36.6%.
CNC(=O)c1ccc(N2C(=S)N(c3ccc(C#N)c(C(F)(F)F)c3)C(=O)C2(C)C)cc1F was tested, and the viability, T/C (compound 0.0316 µM) was 106% [middle of 4 runs], the viability, T/C (compound 0.1 µM) was 95.9% [middle of 4 runs] and the viability, T/C (compound 0.316 µM) was 105% [middle of 4 runs]. The viability, T/C (compound 1 µM) was 108% [middle of 4 runs], the viability, T/C (compound 3.16 µM) was 91.4% [middle of 4 runs] and the viability, T/C (compound 10 µM) was 89.3% [middle of 4 runs]. It also gave an IC50 (curve of compound) greater than 10 µM.
Work on C=CC(=O)N1CCN(c2nc(=O)n(-c3c(C)ccnc3C(C)C)c3nc(-c4c(O)cccc4F)c(F)cc23)C(C)C1 (stereo not drawn) + CC(Nc1ccc2c(c1)OCCn1cc(N3C(=O)OCC3C(F)F)nc1-2)C(N)=O yielded an IC50 [5] greater than 10 µM, an IC50 [6] greater than 10 µM and an IC50 [1] greater than 10 µM. It also gave an IC50 [2] greater than 10 µM, an IC50 [3] greater than 10 µM and an IC50 [4] of less than 0.0316 µM. For the same compound, the viability, T/C [7] was 87.5%, the viability, T/C [8] was 103% and the viability, T/C (second compound 0.00316 µM, first compound 0.316 µM) was 78.8%. It also gave a viability, T/C (second compound 0.00316 µM, first compound 1 µM) of 86.3%, a viability, T/C (second compound 0.00316 µM, first compound 3.16 µM) of 97.3% and a viability, T/C (second compound 0.00316 µM, first compound 10 µM) of 113%. For the same compound, the viability, T/C [9] was 104%, the viability, T/C [10] was 67.8% and the viability, T/C (second compound 0.01 µM, first compound 0.316 µM) was 106%. It also gave a viability, T/C (second compound 0.01 µM, first compound 1 µM) of 84.8%, a viability, T/C (second compound 0.01 µM, first compound 3.16 µM) of 99.9% and a viability, T/C (second compound 0.01 µM, first compound 10 µM) of 92.1%. It also gave a viability, T/C [11] of 99%, a viability, T/C [12] of 84.8% and a viability, T/C (second compound 0.0316 µM, first compound 0.316 µM) of 95.9%. The viability, T/C (second compound 0.0316 µM, first compound 1 µM) was 98%, the viability, T/C (second compound 0.0316 µM, first compound 3.16 µM) was 88.2% and the viability, T/C (second compound 0.0316 µM, first compound 10 µM) was 88.3%. It also gave a viability, T/C [13] of 81.2%, a viability, T/C [14] of 83.6% and a viability, T/C (second compound 0.1 µM, first compound 0.316 µM) of 83.8%. For the same compound, the viability, T/C (second compound 0.1 µM, first compound 1 µM) was 98.5%, the viability, T/C (second compound 0.1 µM, first compound 3.16 µM) was 82.9% and the viability, T/C (second compound 0.1 µM, first compound 10 µM) was 96.8%. It also gave a viability, T/C [15] of 71.2%, a viability, T/C [16] of 73.3% and a viability, T/C (second compound 0.316 µM, first compound 0.316 µM) of 77%. It also gave a viability, T/C (second compound 0.316 µM, first compound 1 µM) of 74.5%, a viability, T/C (second compound 0.316 µM, first compound 3.16 µM) of 75.9% and a viability, T/C (second compound 0.316 µM, first compound 10 µM) of 79.2%. It also gave a viability, T/C [17] of 48.5%, a viability, T/C [18] of 47.2% and a viability, T/C (second compound 1 µM, first compound 0.316 µM) of 59%. It also gave a viability, T/C (second compound 1 µM, first compound 1 µM) of 54.2%, a viability, T/C (second compound 1 µM, first compound 3.16 µM) of 63.4% and a viability, T/C (second compound 1 µM, first compound 10 µM) of 67.2%.
CC(C)n1nc(-c2ccc3oc(N)nc3c2)c2c(N)ncnc21 + CC(Nc1ccc2c(c1)OCCn1cc(N3C(=O)OCC3C(F)F)nc1-2)C(N)=O showed an IC50 [5] of 0.0695 µM, an IC50 [6] of 0.0596 µM and an IC50 [1] of 0.0514 µM. The IC50 [2] was 0.0284 µM, the IC50 [3] was 0.00564 µM and the IC50 [4] was 0.00228 µM. For the same compound, the viability, T/C (second compound 0.00316 µM, first compound 0.000316 µM) was 112%, the viability, T/C (second compound 0.00316 µM, first compound 0.001 µM) was 98% and the viability, T/C (second compound 0.00316 µM, first compound 0.00316 µM) was 110%. For the same compound, the viability, T/C (second compound 0.00316 µM, first compound 0.01 µM) was 91.2%, the viability, T/C [7] was 88.6% and the viability, T/C [8] was 33%. It also gave a viability, T/C (second compound 0.01 µM, first compound 0.000316 µM) of 89.2%, a viability, T/C (second compound 0.01 µM, first compound 0.001 µM) of 97.4% and a viability, T/C (second compound 0.01 µM, first compound 0.00316 µM) of 94.4%. For the same compound, the viability, T/C (second compound 0.01 µM, first compound 0.01 µM) was 83.2%, the viability, T/C [9] was 72.5% and the viability, T/C [10] was 32.2%. For the same compound, the viability, T/C (second compound 0.0316 µM, first compound 0.000316 µM) was 94.6%, the viability, T/C (second compound 0.0316 µM, first compound 0.001 µM) was 101% and the viability, T/C (second compound 0.0316 µM, first compound 0.00316 µM) was 84.5%. For the same compound, the viability, T/C (second compound 0.0316 µM, first compound 0.01 µM) was 82.4%, the viability, T/C [11] was 70.5% and the viability, T/C [12] was 25.5%. For the same compound, the viability, T/C (second compound 0.1 µM, first compound 0.000316 µM) was 76%, the viability, T/C (second compound 0.1 µM, first compound 0.001 µM) was 90.8% and the viability, T/C (second compound 0.1 µM, first compound 0.00316 µM) was 89.9%. It also gave a viability, T/C (second compound 0.1 µM, first compound 0.01 µM) of 71.1%, a viability, T/C [13] of 48.5% and a viability, T/C [14] of 17%. The viability, T/C (second compound 0.316 µM, first compound 0.000316 µM) was 68.2%, the viability, T/C (second compound 0.316 µM, first compound 0.001 µM) was 65.1% and the viability, T/C (second compound 0.316 µM, first compound 0.00316 µM) was 56.5%. For the same compound, the viability, T/C (second compound 0.316 µM, first compound 0.01 µM) was 41.8%, the viability, T/C [15] was 29.9% and the viability, T/C [16] was 5.87%. For the same compound, the viability, T/C (second compound 1 µM, first compound 0.000316 µM) was 57.6%, the viability, T/C (second compound 1 µM, first compound 0.001 µM) was 56.2% and the viability, T/C (second compound 1 µM, first compound 0.00316 µM) was 47.9%. It also gave a viability, T/C (second compound 1 µM, first compound 0.01 µM) of 34.4%, a viability, T/C [17] of 18.8% and a viability, T/C [18] of 3.47%.
